Reference: patent US9718796B2, “Substituted benzoazepines as toll-like receptor modulators” (VENTIRX PHARMACEUTICALS, INC., priority 2011, dated 2017)
Like-named read-outs stand apart in the source and are kept apart here.

Columns and labels:
[1] = test system: IL-8 production in human PBMC stimulated with CL075; experiment: Human PBMC assay: inhibition of IL-8 production stimulated with CL075 (ELISA); format: cell-based; conditions: 3 to 1000 nM antagonist, 2 hours before CL075 100 ng/ML (400 nM), overnight; one donor, duplicate wells
Procedure: PBMCs contain a mixture of cells including monocytes and myeloid dendritic cells (mDCs) that express TLR8. […] The ability of TLR8 antagonists to inhibit […] in human PBMCs was evaluated. […] Data shown in FIG. 1 are a representative experiment from one donor evaluated in duplicate culture wells. […] At the end of the incubation, cells were centrifuged and cell culture supernatants were analyzed for IL-8 by ELISA (eBiosciene kit) per the manufacturer's instructions.
The experiment shown in FIG. 1 was repeated in multiple donors and with additional TLR8 antagonist molecules (see FIG. 2). […] Percent inhibition is shown on the y-axis and concentrations of TLR8 antagonists (3-1000 nM) are shown on the x-axis in FIG. 2.

hTLR8 = target: T1, hTLR8 (Homo sapiens, UniProt Q9NR97); experiment: HEK-293 hTLR8 transfectant antagonist assay (NF-κB driven SEAP reporter); format: cell-based; conditions: hTLR8 reporter cells
T1 construct: host or cells: HEK293 cells stably transfected with hTLR8
T1 sequence (Q9NR97 27-1041): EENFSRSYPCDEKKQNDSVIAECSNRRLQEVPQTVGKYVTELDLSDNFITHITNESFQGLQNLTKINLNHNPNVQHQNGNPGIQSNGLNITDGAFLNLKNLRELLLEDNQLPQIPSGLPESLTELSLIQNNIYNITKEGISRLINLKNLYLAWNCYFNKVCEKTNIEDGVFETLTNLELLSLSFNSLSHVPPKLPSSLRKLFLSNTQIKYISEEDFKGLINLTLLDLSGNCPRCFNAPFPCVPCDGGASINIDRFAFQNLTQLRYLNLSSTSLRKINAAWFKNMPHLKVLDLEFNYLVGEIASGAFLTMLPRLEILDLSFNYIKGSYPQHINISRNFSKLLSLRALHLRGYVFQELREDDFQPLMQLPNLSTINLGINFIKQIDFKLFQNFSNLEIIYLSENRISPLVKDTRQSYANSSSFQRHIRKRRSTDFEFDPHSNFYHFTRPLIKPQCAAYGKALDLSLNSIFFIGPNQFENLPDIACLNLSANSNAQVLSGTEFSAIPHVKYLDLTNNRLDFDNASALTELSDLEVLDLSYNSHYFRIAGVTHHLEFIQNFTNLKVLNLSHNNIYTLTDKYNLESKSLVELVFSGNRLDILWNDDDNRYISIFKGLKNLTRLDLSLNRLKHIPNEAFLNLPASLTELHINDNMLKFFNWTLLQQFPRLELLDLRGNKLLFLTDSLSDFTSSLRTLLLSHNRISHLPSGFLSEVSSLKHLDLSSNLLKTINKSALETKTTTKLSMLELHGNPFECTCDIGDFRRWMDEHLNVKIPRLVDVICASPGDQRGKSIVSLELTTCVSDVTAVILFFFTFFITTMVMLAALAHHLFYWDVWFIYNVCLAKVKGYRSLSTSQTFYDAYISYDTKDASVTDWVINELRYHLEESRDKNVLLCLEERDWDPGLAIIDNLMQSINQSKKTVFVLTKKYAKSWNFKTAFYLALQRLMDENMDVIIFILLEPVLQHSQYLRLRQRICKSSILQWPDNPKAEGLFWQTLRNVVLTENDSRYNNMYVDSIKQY
Procedure: The HEK-293 hTLR transfectant assay employs HEK293 cells stably transfected with various hTLRs and transiently co-transfected with a plasmid containing an NF-κB driven secreted embryonic alkaline phosphate (SEAP) reporter gene. Stimulation of TLRs activates their downstream signaling pathways and induces nuclear translocation of the transcription factor NF-κB. Reporter gene activity is then measured using a spectrophotometric assay. To measure antagonist activity, human embryonic kidney (HEK) cells (e.g., 293XL-hTLR8 cells available from InvivoGen, San Diego, Calif.) are prepared according to supplier's instructions and incubated with various concentrations of test compound overnight. The amount of induced […] is measured by reading the absorbance at 650 nm. The compounds of the invention have an MC50 of 25 μM or less, wherein MC50 is defined as the concentration at which 50% of maximum induction is seen. For the TLR8 antagonist assays, cells are transiently transfected with the reporter gene on Day 1 per the supplier's instructions. Antagonist compounds are added to the cultures on Day 2 followed by addition of a TLR8 agonist approximately 2 hours later. Cultures are incubated overnight and SEAP activity is measured on Day 3. In a typical assay, 50,000 HEK239 hTLR8 cells are seeded per culture well and transiently transfected with the SEAP reporter gene. Antagonists are added to cultures in culture medium and […] DMSO over a concentration range of 0.1 nanomolar to 10 micromolar. TLR8 agonists are added to cultures 2 hours later at a fixed concentration (e.g., 1 micromolar or 10 micromolar of Compound A) and cultures are then incubated for 16-24 hrs at 37° C. in a humidified CO incubator. Antagonists are also evaluated for activity in the absence of agonist. TLR8 antagonist activity was measured in a hTLR8 assay format, measuring IC50 values. […] IC50s were then calculated.

[2] = IC50, nM, vs. 3M002 10 μM, agonist 3M002 10 μM
[3] = IC50, nM, vs. VTX-378 1 μM, TLR8 agonist VTX-378 (Compound A) 1 μM
[4] = TLR8 agonist VTX-378 (Compound A) 0.5 μM, read-out: IC50, nM, vs. VTX-378 0.5 μM

IC50 (hTLR8; [2]) [nM]	IC50 (hTLR8; [3]) [nM]	IC50 (hTLR8; [4]) [nM]	Structure (SMILES)	IL-8 levels in human PBMC stimulated with CL075 (FIG. 1) [1]
< 1000	< 1000	< 1000	CCOC(=O)Nc1ccc(-c2ccc3c(c2)C=C(C(=O)OCC)CC(N)=N3)c(Cl)c1 [Compound 3261, Ethyl 2-amino-7-{2-chloro-4-[(ethoxycarbonyl)amino]phenyl}-3H-1-benzazepine-4-carboxylate]	reduced in a dose dependent fashion
< 1000	< 1000	< 1000	CCOC(=O)C1=Cc2cc(-c3ccc(N4CCOC4=O)cc3Cl)ccc2N=C(N)C1 [Compound 3387, Ethyl 2-amino-7-[2-chloro-4-(2-oxo-1,3-oxazolidin-3-yl)phenyl]-3H-1-benzazepine-4-carboxylate]	reduced in a dose dependent fashion

Structure (SMILES)	IC50 (hTLR8; [2]) [nM]	IC50 (hTLR8; [3]) [nM]	IC50 (hTLR8; [4]) [nM]	IL-8 levels in human PBMC stimulated with CL075 (FIG. 1) [1]
CCOC(=O)C1=Cc2cc(-c3ccc(C(=O)N4CCCC4)cc3)ccc2N=C2NCCC12 (centres unmarked) [Compound 3448]		< 1000	< 1000	reduced in a dose dependent fashion
